From patent US20210180013A1, “IMPROVED METHODS FOR INDUCING TISSUE REGENERATION AND SENOLYSIS IN MAMMALIAN CELLS” (AgeX Therapeutics, Inc., priority 2018, published 2021) come the findings set out here.

Where “and” joins values, the source holds several entries; their conditions need not be identical. Identical values can stand only once.

In assay [1] the test system is 4D20.8 and MSCs. In words: TUNEL apoptosis assay, embryonic vs adult mesenchymal cells. The format is cell-based, human. The settings on record: 3.7 nM; 24 hours; 4D20.8 vs MSC; FIG. 7. As to the method:
(§1) Optimized conditions were identified for distinguishing the increased apoptosis anticipated by cells with a pre-fetal pattern of gene expression. Embryonic and adult-derived mesenchymal (4D20.8 and MSCs respectively) and vascular endothelial cells (30MV2-6 and HAEC respectively) were treated with diverse stimuli for apoptosis including: Camptothecin (CPT), H2O2, and Thapsigargin (TG) at two concentrations each as well as a vehicle control. The compounds were applied for 24 hours prior to analysis. After treatment apoptosis was monitored via TUNEL staining using the In Situ Cell Death Detection kit (Roche, cat #12156792910) following the manufacturer's instructions. […] This assay is therefore useful in determining the effectiveness of iTR factors in inducing senolysis in aged cells and in CSCs.

Assay [2] concerns 30MV2-6 and HAEC. Description: TUNEL apoptosis assay, embryonic vs adult vascular endothelial cells. The settings on record: 3.7 nM; 24 hours; 30MV2-6 vs HAEC; FIG. 7. The format is cell-based, human. As to the method: as §1
For assay [3], the system named is BJ-TERT fibroblast cells. Description: Scratch assay of tissue regeneration and cell proliferation. The settings on record: 2 weeks treatment; 800 um scratch; % filling 16 hours later. The format is cell-based. As to the method:
BJ-TERT fibroblast cells at passage 8 were seeded at 50,000 cells/well on 6 well plates in DMEM 10% FBS. The following day the cells were treated with various cocktails listed below for 2 weeks:
Following treatment, at confluence an 800 um scratch was made and % filling evaluated 16 hours later. Filling of scratch of treated cells were compared to that of control.

The subject of assay [4] is Xgene fibroblasts (human foreskin). In words: Cell number of early and late passage fibroblasts (senolytic activity). The format is cell-based. Particulars: for cell number, Avg / cell number, single wells: 20,000 cells/well seeded; for cell number, Avg / cell number, single wells / cell number compared to controls, in words: 1 week; for Fold change of cell number: relative to control (growth medium alone). As to the method: Xgene fibroblasts (human foreskin, obtained from Xgene, Sausilito Calif.) were seeded at early (P9) and late (P33) passage at 20,000 cells/well (0.1% gelatin coated 24 well plate) in growth medium (DMEM+10% FBS). The following day they were refed medium with the additive listed below for 1 week and fed every other day and then counted.

Assay [5] has as its system COX7A1. In words: qPCR of COX7A1 after valproic acid treatment. The format is cell-based. The settings on record: 28 days, adult derived dermal fibroblasts. As to the method: Adult derived dermal fibroblasts were cultured in DMEM 10% FBS in wells of 6 well plates and treated with valproic acid at 0.5 mM and 1 mM for 28 days. On day 28 the media was removed, the cells were washed with PBS, and then lysed using RLT with beta-mercaptoethanol (Qiagen Cat 79216). Total RNA was extracted using Qiagen RNeasy mini-kits (Qiagen Cat 74106) following manufacturers instructions. Then cDNA was prepared using ThermoFisher superscript III (Cat. 18080044). qPCR was run on an Applied Biosystems 7500 Real-Time PCR System employing SDSv2.3 software to evaluate the expression of COX7A1 (which is a definitive indicator of adult phenotype) relative to GAPDH of the treated line relative to the untreated line.
(Quantitative PCR measures a nucleic acid by following its amplification.)

For the molecule `C/C=C(/C)C(=O)O[C@H]1C(C)=C2[C@H]([C@@H]1OC(=O)CCCCCCC)[C@@](C)(OC(C)=O)C[C@H](OC(=O)CCC)[C@@]1(O)[C@H]2OC(=O)[C@@]1(C)O` [Thapsigargin], the “apoptosis (TUNEL), embryonic mesenchymal cells compared to adult counterparts” value in assay [1] is listed as “robust statistically-significant increase in apoptosis”. Besides, the “apoptosis (TUNEL), embryonic endothelial cells compared to adult counterparts” value in assay [2] is “robust statistically-significant increase in apoptosis”.
With `CCCC(CCC)C(=O)O` [valproic acid], in assay [3], the “Fold Increase Over Control (filling of scratch)” value came out at 1.4. In addition, the “cell number, Avg” value in assay [4] (early passage P9) is 226,000; in assay [4] (late passage P33), 67,000. In addition, the “cell number, single wells” value in assay [4] (early passage P9, listed as Cond. B) is 228,000 and 224,000; in assay [4] (late passage P33, listed as Cond. B) it was 62,000 and 72,000. In addition, the figures for the “Fold change of cell number” value in assay [4] (early passage P9) and in assay [4] (late passage P33) were 1.2 and 1.0, respectively. Moreover, the “cell number compared to controls, in words” value in assay [4] (late passage (P33)) is on record as “differential effect on late passage cells”. The “COX7A1 expression (normalized to GAPDH) compared to control (untreated)” value is given as “negligible effect” in assay [5] (0.5 mM) and 0.001 in assay [5] (1 mM).

B1: A: LIN28A-11R (LD Biopharma HTF 0046) 4 ug/ml (protein, UniProt Q9H9Z2 2-209, looked up)
Protein lin-28 homolog A: GSVSNQQFAGGCAKAAEEAPEEAPEDAARAADEPQLLHGAGICKWFNVRMGFGFLSMTARAGVALDPPVDVFVHQSKLHMEGFRSLKEGEAVEFTFKKSAKGLESIRVTGPGGVFCIGSERRPKGKSMQKRRSKGDRCYNCGGLDHHAKECKLPPQPKKCHFCQSISHMVASCPLKAQQGPSAQGKPTYFREEEEEIHSPTLLPEAQN
modifications: C-terminal 11-arginine cell-penetrating tag
notes: LIN28A-11R (LD Biopharma HTF 0046) 4 ug/ml
For the molecule B1, the “Fold Increase Over Control (filling of scratch)” value in assay [3] is 1.2. Further, the “cell number compared to controls, in words” value is listed as “heightened cell number” in assay [4] (early passage (P9)); “differential effect on late passage cells” in assay [4] (late passage (P33)); “reduced cell number” in assay [4] (late passage (P33), listed as condition A). In addition, the “cell number, Avg” value in assay [4] (early passage P9) is 254,000; in assay [4] (late passage P33), 48,000. Moreover, the “cell number, single wells” value in assay [4] (early passage P9, listed as Cond A) was 220,000 and 288,000; in assay [4] (late passage P33, listed as Cond A) it was 46,000 and 50,000. Further, the “Fold change of cell number” value is recorded as 1.3 in assay [4] (early passage P9) and 0.8 in assay [4] (late passage P33).
